According to patent US20240246970A1, “SUBSTITUTED HETERO-BICYCLOCOMPOUNDS AS SUBTYPE SELECTIVE NICOTINIC ACETYLCHOLINE RECEPTOR INHIBITORS” (THE BOARD OF TRUSTEES OF THE UNIVERSITY OF ILLINOIS, priority 2021, published 2024):
Read-outs that look alike come from different tables or passages of the source.

Target: T1, rat α3β4 nAChR (Rattus norvegicus, UniProt P04757+P12392)
T1 construct: expressed in transfected cells; host or cells: HEK293 (rα3β4-HEK293, kept under G-416 selection)
Assay: Calcium influx assay (dual agonist/antagonist, FLIPR calcium 6) in HEK293 cells expressing rat α3β4 nAChR
Assay type: cell-based
Procedure: FIGS. 2A-2B show dual agonist/antagonist fluorescence assays. […] For agonist assays, 12 concentrations of test compounds were added to the cells ([…], final concentrations).
FIGS. 3A-3B show concentration response curves. […] Each concentration-response point represents a minimum of two technical replicates and three biological replicates. EC50, Emax, and IC50 values were calculated from corresponding concentration-response curves fitted using the logistical curve in OriginPro.
Assay Description. HEK293 cells expressing the rat α3β4 nAChR were loaded with an intracellular, calcium-sensitive dye. Activation of the receptor results in an increase in the intracellular calcium concentration and a corresponding increase in fluorescent signal. Multiple concentrations of test compounds were first applied to the rα3β4-HEK293 cells and monitored for their ability to activate α3β4 nAChRs.
Cell culture. […] For fluorescence assays, the cells were seeded into 96-well flat bottom, black wall plates, at a density of approximately 50,000 cells per well in 75 μL of media.
Cells seeded at this density grew into a confluent monolayer in 24 h. Ca^2+ fluorescence assays. Ca^2+ uptake was determined using a FLIPR calcium 6 assay.
For dye loading, the fluorescent dye was reconstituted in 10 mL assay buffer according to the manufacturer's protocol. 75 μL of the dye solution was added to each well and the plate was incubated at 37° C. for 1 h. Plates were then transferred to a FlexStation 3 maintained at 37° C.
Dual Agonist/AntagonistAssay. […] For agonist assays, 12 concentrations of test compounds were added to the cells ([…], final concentrations).
Once again, the fluorescence measured for 28 seconds prior to addition and 90 seconds afterwards.
Data reduction. […] Each concentration-response point represents a minimum of two technical replicates and three biological replicates. EC50, Emax, and IC50 values were calculated from corresponding concentration-response curves (see FIGS. 3A-3B) fitted using the logistical curve in OriginPro.

[1] = Example 5, α3β4 nAChR, read-out: IC50

T1 sequence (P04757 26-499): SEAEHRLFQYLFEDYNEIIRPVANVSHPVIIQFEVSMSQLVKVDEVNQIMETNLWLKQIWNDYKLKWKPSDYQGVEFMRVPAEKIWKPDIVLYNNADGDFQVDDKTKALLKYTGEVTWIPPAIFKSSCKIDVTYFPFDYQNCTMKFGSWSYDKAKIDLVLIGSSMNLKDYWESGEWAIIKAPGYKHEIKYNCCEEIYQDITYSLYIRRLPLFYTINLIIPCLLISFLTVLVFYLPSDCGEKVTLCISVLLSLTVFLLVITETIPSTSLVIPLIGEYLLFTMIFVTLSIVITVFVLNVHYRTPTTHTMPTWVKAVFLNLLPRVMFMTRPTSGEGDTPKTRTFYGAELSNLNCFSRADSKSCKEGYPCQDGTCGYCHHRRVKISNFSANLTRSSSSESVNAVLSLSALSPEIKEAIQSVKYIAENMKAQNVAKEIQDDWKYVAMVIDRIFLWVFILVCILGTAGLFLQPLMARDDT
T1 sequence (P12392 21-495): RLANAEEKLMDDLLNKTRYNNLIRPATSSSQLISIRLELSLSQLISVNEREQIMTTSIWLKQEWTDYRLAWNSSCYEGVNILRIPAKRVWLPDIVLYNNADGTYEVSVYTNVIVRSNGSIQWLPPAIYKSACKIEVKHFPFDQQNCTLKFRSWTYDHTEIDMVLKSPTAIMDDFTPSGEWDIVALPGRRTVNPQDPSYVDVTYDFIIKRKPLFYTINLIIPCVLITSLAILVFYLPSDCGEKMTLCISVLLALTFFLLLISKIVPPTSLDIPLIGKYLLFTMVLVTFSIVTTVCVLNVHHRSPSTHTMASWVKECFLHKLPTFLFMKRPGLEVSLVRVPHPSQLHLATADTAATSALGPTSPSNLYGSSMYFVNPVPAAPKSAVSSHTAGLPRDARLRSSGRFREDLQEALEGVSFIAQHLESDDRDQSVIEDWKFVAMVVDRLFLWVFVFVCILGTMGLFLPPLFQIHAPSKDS

| Compound | IC50 [1] [nM] | other results |
| --- | --- | --- |
| CC1=CCC2CC1C(c1ccnc3ccccc13)N(C)C2(C)C (stereo not shown) | 1400 |  |
| CCN1C(c2ccc(F)c(C(F)(F)F)c2)C2CC(CC=C2C)C1(C)C (stereo not shown) | 760 |  |
| CC1=CCC2CC1C(c1ccc(F)c(C(F)(F)F)c1)OC2(C)C (stereo not shown) [drawing 51] |  | IC50 (IC50, Example 5 text, α3β4 nAChR): > 100000 nM |
| CC1=CCC2CC1C(c1ccc(F)c(C(F)(F)F)c1)OC2(C)C (stereo not shown) [drawing 115] |  | IC50 (α3β4 nAChR IC50, Table 4, R1 and R2 methyl, R3 NH unless otherwise indicated): > 200000 nM |
